Measurements from US20110039763A1, “TARGETED ANTIMICROBIAL MOIETIES” (C3 JIAN, INC., priority 2009, published 2011).
Entries after “also recorded” stand apart in the source; their conditions may differ.

Tests used:
microorganisms [1] = assay: Peptide activities: targeting/binding, antimicrobial, growth or phenotype altering (Tables 7, 8); assay type: cell-based; details: peptides having multiple activities
microorganisms [2] = assay: Targeting peptide binding to target microorganisms (Tables 3, 10, 12); details: microorganism(s) the targeting peptide binds; binding in aqueous buffers varied with peptide solubility, preferably 1x PBS
microorganisms [3] = assay: Morphology, biofilm and growth disrupting peptides (Table 5); assay type: cell-based; set-up: key: A: Peptide aggregates; B: Less hyphal formation; Clumps; Diffuse clumps and small polyps; F: Diffuse growth; H: Thin; I: Growth inhibition; Microcolony formation; Rippled; Small polyps; Thick; W: Halo formation on top, microlonies on bottom
Excerpt: In certain embodiments peptides that induce alterations in phenotype or other biological activities can also be used as antimicrobial effector moieties.

Row | Substance | Activities (microorganisms [1]) | Target(s) (microorganisms [2]) | Organism, effect (microorganisms [3]; C. jejuni) | Organism, effect (microorganisms [3]; E. coli) | Organism, effect (microorganisms [3]; MRSA) | Organism, effect (microorganisms [3]; S. epidermidis) | Organism, effect (microorganisms [3]; S. pneumoniae) | Organism, effect (microorganisms [3]; E. faecalis)
1 | PF-576: peptide having multiple activities (AYSGELPEPLVRKMSKEQVRSVMGK; Peptide with targeting and/or antimicrobial activity) | G B | M. luteus; also recorded: P. mirabilis; also recorded: E. coli; also recorded: P. aeruginosa; also recorded: C. albicans; also recorded: S. pneumoniae | C. jejuni (C) | E. coli (A) | MRSA (R) | S. epidermidis (A) | S. pneumoniae (C) | 
2 | PF-584: peptide having multiple activities (chain 1 SYIKNLSNQKFLIAF; chain 2 SYIKNLSNQKFLIAF; Peptide with targeting and/or antimicrobial activity) | G B | S. epidermidis and M. luteus and P. mirabilis and C. albicans and MRSA and S. pneumoniae and E. faecalis and C. jeikeium | C. jejuni (D) | E. coli (C) | MRSA (D) | S. epidermidis (C) | S. pneumoniae (D) | E. faecalis (D)
3 | PF-585: peptide having multiple activities (chain 1 DYNHLLNVVQDWVNTN; chain 2 DYNHLLNVVQDWVNTN; Peptide with targeting and/or antimicrobial activity) | G B | S. epidermidis and E. coli and C. albicans and MRSA and S. pneumoniae and C. jeikeium | C. jejuni (R) |  | MRSA (S) | S. epidermidis (S) | S. pneumoniae (R) | E. faecalis (A)
4 | PF-588: peptide having multiple activities (chain 1 ESVEAIKAKAIK; chain 2 ESVEAIKAKAIK; Peptide with targeting and/or antimicrobial activity) | G B | S. epidermidis; also recorded: E. coli; also recorded: C. albicans; also recorded: E. faecalis; also recorded: C. jeikeium; also recorded: C. jejuni |  |  |  |  |  | E. faecalis (A)
5 | PF-590: peptide having multiple activities (chain 1 YYQAKLFPLL; chain 2 YYQAKLFPLL; Peptide with targeting and/or antimicrobial activity) | G B | S. epidermidis; also recorded: M. luteus; also recorded: E. coli; also recorded: E. faecalis; also recorded: C. jeikeium | C. jejuni (R) |  |  |  |  | 
6 | PF-593: peptide having multiple activities (chain 1 MEISTLKKEKLHVKDELSQYLANYKK; chain 2 MEISTLKKEKLHVKDELSQYLANYKK; Peptide with targeting and/or antimicrobial activity) | G B | C. jeikeium |  |  |  |  |  | E. faecalis (A)
7 | PF-594: peptide having multiple activities (chain 1 IVSAIV; chain 2 IVSAIV; Peptide with targeting and/or antimicrobial activity) | G B | C. jeikeium |  |  |  |  |  | E. faecalis (C)
8 | PF-598: peptide having multiple activities (chain 1 MKFMLEVRNKAISAYKEITRTQI; chain 2 MKFMLEVRNKAISAYKEITRTQI; Peptide with targeting and/or antimicrobial activity) | G B | S. epidermidis and M. luteus and P. mirabilis and P. aeruginosa and C. albicans and MRSA and S. pneumoniae and C. jeikeium | C. jejuni (R) | E. coli (C) | MRSA (D) | S. epidermidis (R) | S. pneumoniae (R) | E. faecalis (R)
9 | PF-599: peptide having multiple activities (chain 1 LFEIFKPKH; chain 2 LFEIFKPKH; Peptide with targeting and/or antimicrobial activity) | G B | S. epidermidis and P. mirabilis and E. coli and C. albicans and MRSA and S. pneumoniae and C. jeikeium | C. jejuni (R) |  | MRSA (C) | S. epidermidis (M) | S. pneumoniae (R) | E. faecalis (A)
10 | PF-601: peptide having multiple activities (chain 1 YRVTVKALE; chain 2 YRVTVKALE; Peptide with targeting and/or antimicrobial activity) | G B | C. jeikeium | C. jejuni (A) |  |  |  |  | E. faecalis (A)
11 | PF-602: peptide having multiple activities (chain 1 LEKEKKEYIEKLFKTK; chain 2 LEKEKKEYIEKLFKTK; Peptide with targeting and/or antimicrobial activity) | G B | P. mirabilis; also recorded: C. jeikeium |  |  |  |  |  | E. faecalis (A)
12 | PF-604: peptide having multiple activities (chain 1 LMEQVEV; chain 2 LMEQVEV; Peptide with targeting and/or antimicrobial activity) | G B | S. epidermidis; also recorded: C. albicans; also recorded: C. jeikeium |  |  |  |  |  | E. faecalis (A)
13 | PF-607: peptide having multiple activities (chain 1 YIESDPRKFDYIFGAIRDH; chain 2 YIESDPRKFDYIFGAIRDH; Peptide with targeting and/or antimicrobial activity) | G B | S. epidermidis and P. mirabilis and E. coli and MRSA and S. pneumoniae and C. jeikeium | C. jejuni (R) |  | MRSA (S) | S. epidermidis (M) | S. pneumoniae (R) | E. faecalis (A)
14 | PF-609: peptide having multiple activities (chain 1 TEIKLDNNEYLVLNLDDILGILK; chain 2 TEIKLDNNEYLVLNLDDILGILK; Peptide with targeting and/or antimicrobial activity) | G B | P. mirabilis; also recorded: E. coli; also recorded: S. pneumoniae | C. jejuni (R) |  | MRSA (C) |  | S. pneumoniae (R) | E. faecalis (A)
15 | PF-613: peptide having multiple activities (chain 1 ADEFAKL; chain 2 ADEFAKL; Peptide with targeting and/or antimicrobial activity) | G B | C. jeikeium |  |  | MRSA (C) | S. epidermidis (R) |  | E. faecalis (A)
